In patent publication US12275731B2, “Azaindole inhibitors of wild-type and mutant forms of LRRK2” (DANA-FARBER CANCER INSTITUTE, INC., priority 2018, dated 2025):

Tests used:
Assay in all cases: KinomeScan profiling
Type in all cases: binding
HCK = HCK (Homo sapiens, UniProt P08631); conditions: read-out: % control
Method in brief: (§1)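 Test agents were profiled at a single concentration of 1 μM (DMSO vehicle) on a near-complete set of 468 kinases. Signal is reported relative to vehicle (100%) and a fully displacing control (0%).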

MTOR = MTOR (Homo sapiens, UniProt P42345); conditions: read-out: % control
Method in brief: as §1

IKK-epsilon = molecular target: T1, IKK-epsilon (Homo sapiens, UniProt Q14164); conditions: read-out: % control
T1 construct: purchased KinomeScan®
T1 sequence (Q14164 1-716): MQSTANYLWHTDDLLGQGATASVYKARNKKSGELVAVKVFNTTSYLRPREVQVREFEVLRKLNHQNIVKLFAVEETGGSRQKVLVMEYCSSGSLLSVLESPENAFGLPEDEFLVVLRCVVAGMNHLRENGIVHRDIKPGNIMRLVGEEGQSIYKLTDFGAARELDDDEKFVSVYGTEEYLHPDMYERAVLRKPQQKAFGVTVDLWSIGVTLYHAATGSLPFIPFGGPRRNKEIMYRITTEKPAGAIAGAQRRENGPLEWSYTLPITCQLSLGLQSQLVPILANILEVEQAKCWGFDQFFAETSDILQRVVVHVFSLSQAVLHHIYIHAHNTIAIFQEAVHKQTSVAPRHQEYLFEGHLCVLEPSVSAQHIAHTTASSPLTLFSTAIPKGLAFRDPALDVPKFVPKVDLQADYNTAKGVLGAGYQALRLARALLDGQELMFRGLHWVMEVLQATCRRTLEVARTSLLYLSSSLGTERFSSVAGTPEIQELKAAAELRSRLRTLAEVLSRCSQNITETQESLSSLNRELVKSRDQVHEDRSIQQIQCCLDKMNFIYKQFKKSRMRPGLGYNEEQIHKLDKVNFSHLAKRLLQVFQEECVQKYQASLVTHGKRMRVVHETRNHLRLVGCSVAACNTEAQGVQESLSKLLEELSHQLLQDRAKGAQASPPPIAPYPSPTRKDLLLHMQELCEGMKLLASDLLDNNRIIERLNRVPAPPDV
Method in brief: as §1

MLCK = molecular target: T2, MLCK (Homo sapiens, UniProt Q32MK0); conditions: read-out: % control
T2 sequence (Q32MK0 1-819): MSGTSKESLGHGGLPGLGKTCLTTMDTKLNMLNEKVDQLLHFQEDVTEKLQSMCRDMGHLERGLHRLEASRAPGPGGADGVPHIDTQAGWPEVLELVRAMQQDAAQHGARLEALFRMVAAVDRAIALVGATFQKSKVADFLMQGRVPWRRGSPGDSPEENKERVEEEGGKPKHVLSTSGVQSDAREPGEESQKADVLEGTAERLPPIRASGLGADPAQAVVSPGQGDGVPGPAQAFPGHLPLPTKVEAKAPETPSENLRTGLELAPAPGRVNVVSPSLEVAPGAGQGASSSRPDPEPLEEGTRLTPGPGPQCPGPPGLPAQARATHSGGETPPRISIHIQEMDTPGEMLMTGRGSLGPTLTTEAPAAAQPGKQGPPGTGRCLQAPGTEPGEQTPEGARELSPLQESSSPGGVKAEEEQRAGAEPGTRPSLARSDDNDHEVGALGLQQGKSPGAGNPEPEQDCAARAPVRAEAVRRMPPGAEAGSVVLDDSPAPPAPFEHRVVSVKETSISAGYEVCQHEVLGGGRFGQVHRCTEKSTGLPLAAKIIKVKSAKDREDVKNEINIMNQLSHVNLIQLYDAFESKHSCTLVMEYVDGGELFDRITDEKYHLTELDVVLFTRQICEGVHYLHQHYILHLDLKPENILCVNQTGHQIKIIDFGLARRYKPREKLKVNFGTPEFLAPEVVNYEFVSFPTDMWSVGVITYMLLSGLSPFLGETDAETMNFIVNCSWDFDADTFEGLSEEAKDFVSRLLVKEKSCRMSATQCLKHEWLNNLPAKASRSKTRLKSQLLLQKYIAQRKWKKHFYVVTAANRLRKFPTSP
Method in brief: as §1

MAST1 = MAST1 (Homo sapiens, UniProt Q9Y2H9); conditions: MAST1, 1 μM; read-out: % control
Chain of MAST1 (Q9Y2H9 whole entry): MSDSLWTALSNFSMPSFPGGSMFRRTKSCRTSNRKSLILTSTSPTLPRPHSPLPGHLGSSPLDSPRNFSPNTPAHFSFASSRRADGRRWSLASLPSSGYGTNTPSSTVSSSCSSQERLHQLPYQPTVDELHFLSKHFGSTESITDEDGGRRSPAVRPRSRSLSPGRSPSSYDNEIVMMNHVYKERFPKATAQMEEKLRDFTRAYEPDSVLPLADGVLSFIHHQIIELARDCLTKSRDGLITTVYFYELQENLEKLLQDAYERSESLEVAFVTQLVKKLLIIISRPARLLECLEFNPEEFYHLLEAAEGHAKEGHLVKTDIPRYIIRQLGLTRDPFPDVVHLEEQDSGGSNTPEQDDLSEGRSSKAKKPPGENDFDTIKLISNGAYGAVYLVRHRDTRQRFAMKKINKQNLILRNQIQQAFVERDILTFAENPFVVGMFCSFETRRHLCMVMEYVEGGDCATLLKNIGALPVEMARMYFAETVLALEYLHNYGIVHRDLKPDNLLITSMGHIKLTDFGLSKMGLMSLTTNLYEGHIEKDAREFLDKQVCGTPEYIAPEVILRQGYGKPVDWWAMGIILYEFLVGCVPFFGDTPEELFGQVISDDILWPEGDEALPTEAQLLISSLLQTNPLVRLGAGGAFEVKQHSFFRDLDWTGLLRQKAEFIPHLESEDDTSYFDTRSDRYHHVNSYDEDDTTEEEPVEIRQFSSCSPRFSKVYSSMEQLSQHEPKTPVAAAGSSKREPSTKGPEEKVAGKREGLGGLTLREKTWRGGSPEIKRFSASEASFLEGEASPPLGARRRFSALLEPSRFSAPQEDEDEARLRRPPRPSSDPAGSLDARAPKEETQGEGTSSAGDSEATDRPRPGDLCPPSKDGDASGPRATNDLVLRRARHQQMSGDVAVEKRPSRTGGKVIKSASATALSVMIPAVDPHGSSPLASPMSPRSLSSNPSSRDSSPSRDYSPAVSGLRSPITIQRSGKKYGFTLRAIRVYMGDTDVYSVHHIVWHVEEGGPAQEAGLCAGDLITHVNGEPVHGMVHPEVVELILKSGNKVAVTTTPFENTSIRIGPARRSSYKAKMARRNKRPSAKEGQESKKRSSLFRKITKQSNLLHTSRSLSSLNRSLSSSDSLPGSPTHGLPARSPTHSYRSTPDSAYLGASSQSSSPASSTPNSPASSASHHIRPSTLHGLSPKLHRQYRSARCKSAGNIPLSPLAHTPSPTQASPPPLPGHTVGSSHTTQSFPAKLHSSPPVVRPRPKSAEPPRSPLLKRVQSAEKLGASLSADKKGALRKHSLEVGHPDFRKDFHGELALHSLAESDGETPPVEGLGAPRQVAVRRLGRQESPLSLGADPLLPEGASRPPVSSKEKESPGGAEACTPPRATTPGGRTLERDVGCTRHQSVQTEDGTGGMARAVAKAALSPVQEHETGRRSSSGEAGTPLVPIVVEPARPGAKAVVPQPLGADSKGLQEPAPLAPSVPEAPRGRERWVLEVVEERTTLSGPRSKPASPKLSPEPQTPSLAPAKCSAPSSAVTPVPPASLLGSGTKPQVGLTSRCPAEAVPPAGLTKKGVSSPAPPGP
Method in brief: as §1

ERK2 = ERK2 (Homo sapiens, UniProt P28482); conditions: ERK2, 1 μM; read-out: % control
Chain of ERK2 (P28482 whole entry): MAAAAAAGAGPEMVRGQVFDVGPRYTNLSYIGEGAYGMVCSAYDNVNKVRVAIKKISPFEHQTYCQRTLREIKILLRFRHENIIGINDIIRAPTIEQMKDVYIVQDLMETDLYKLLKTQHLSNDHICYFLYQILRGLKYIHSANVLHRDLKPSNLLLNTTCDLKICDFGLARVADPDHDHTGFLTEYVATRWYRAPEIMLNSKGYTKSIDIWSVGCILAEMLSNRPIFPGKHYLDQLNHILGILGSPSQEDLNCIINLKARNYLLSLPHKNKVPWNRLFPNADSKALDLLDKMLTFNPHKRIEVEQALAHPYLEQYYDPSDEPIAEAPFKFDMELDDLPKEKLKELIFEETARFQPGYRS
Method in brief: as §1

[1] = molecular target: T3, ABL1(M351T)-phosphorylated (Homo sapiens, UniProt P00519, M351T); conditions: read-out: % control
T3 construct: purchased KinomeScan®
Method in brief: as §1

CDK9 = CDK9 (Homo sapiens, UniProt P50750); conditions: CDK9, 1 μM; read-out: % control
Chain of CDK9 (P50750 whole entry): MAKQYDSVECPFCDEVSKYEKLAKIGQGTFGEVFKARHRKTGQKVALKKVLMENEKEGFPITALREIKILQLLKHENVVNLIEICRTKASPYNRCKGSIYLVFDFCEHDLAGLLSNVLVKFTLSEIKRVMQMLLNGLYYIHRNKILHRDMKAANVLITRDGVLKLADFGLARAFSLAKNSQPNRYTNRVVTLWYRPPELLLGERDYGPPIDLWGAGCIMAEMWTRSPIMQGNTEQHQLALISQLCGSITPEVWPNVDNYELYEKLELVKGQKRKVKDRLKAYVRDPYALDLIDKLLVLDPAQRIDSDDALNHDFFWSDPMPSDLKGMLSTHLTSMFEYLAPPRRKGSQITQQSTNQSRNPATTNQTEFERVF
Method in brief: as §1

WNK2 = WNK2 (Homo sapiens, UniProt Q9Y3S1); conditions: WNK2, 1 μM; read-out: % control
Method in brief: as §1

SIK = molecular target: T4, SIK (Homo sapiens, UniProt P57059); conditions: read-out: % control
T4 construct: purchased KinomeScan® (panel service)
T4 sequence (P57059 whole entry): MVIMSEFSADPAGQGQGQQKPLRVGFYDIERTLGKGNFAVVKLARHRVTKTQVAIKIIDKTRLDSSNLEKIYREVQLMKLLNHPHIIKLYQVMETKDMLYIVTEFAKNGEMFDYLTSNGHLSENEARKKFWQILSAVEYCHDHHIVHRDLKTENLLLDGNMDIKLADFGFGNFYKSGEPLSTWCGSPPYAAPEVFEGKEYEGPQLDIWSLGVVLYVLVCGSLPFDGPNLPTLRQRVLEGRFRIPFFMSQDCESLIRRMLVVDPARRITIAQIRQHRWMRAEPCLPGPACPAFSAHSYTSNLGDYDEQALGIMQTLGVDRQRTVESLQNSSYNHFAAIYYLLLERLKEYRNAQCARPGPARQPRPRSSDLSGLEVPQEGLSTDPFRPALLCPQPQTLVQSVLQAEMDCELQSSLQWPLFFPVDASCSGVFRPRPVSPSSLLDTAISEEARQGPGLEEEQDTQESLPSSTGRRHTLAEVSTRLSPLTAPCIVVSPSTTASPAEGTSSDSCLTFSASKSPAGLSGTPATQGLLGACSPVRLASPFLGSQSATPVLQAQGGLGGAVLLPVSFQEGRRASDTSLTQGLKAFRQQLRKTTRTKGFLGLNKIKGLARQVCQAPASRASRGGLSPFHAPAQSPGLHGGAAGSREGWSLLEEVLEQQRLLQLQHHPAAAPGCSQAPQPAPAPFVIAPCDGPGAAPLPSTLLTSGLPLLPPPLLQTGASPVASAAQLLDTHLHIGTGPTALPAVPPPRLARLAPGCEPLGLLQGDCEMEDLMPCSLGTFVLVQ
Method in brief: as §1

MARK3 = MARK3 (Homo sapiens, UniProt P27448); conditions: MARK3, 1 μM; read-out: % control
Chain of MARK3 (P27448 whole entry): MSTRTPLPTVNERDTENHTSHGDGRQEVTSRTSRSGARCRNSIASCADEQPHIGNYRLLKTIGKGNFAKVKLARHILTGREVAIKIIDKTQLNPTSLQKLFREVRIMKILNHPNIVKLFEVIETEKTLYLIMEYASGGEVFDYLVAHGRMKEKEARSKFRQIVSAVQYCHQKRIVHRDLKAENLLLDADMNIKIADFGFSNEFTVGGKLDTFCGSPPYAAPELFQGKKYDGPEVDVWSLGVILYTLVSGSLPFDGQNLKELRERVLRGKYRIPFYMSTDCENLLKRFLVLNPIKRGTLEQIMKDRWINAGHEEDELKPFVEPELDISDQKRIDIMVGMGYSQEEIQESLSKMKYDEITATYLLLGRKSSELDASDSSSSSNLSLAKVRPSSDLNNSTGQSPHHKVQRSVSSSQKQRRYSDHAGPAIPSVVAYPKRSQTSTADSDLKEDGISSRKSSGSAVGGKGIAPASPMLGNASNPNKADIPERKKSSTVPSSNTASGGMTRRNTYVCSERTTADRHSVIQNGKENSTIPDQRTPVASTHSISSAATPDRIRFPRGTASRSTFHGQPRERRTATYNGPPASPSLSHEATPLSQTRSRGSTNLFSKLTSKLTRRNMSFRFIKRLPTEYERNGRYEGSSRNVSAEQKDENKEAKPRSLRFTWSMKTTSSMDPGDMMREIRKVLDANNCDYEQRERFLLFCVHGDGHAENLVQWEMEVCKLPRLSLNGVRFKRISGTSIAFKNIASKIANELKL
Method in brief: as §1

WEE1 = WEE1 (Homo sapiens, UniProt P30291); conditions: WEE1, 1 μM; read-out: % control
Chain of WEE1 (P30291 whole entry): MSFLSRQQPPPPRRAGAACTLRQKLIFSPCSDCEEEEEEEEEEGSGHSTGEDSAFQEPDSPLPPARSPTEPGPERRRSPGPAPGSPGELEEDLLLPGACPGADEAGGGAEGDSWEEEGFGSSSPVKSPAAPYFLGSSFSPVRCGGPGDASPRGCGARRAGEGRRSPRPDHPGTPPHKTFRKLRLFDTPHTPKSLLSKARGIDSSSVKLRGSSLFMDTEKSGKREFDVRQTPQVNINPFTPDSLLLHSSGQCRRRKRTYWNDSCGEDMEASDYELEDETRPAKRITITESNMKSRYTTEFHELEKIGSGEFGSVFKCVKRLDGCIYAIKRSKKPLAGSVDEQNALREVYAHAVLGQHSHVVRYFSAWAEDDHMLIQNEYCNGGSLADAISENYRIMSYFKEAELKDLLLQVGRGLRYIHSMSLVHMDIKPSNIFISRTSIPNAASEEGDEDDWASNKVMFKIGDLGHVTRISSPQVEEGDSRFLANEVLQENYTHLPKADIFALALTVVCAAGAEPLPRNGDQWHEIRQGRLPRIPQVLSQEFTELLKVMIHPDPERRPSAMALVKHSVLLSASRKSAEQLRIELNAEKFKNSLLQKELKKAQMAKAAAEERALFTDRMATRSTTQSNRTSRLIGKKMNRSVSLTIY
Method in brief: as §1

AURKC = molecular target: T5, AURKC (Homo sapiens, UniProt Q9UQB9); conditions: read-out: % control
T5 construct: purchased KinomeScan®
T5 sequence (Q9UQB9 1-309): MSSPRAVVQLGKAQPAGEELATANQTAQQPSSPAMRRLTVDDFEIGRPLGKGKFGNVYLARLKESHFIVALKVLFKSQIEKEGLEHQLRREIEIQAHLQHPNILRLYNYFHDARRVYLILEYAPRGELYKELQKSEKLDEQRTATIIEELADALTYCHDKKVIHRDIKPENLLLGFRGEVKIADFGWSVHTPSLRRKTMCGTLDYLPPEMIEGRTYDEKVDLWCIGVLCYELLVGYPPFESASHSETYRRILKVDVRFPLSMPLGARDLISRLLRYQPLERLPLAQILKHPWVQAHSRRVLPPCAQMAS
Method in brief: as §1

PIK3CA(I800L) = molecular target: T6, PIK3CA(I800L) (Homo sapiens, UniProt P42336, I800L); conditions: read-out: % control
T6 construct: purchased KinomeScan® (panel service)
Method in brief: as §1

Chain of HCK (P08631 whole entry): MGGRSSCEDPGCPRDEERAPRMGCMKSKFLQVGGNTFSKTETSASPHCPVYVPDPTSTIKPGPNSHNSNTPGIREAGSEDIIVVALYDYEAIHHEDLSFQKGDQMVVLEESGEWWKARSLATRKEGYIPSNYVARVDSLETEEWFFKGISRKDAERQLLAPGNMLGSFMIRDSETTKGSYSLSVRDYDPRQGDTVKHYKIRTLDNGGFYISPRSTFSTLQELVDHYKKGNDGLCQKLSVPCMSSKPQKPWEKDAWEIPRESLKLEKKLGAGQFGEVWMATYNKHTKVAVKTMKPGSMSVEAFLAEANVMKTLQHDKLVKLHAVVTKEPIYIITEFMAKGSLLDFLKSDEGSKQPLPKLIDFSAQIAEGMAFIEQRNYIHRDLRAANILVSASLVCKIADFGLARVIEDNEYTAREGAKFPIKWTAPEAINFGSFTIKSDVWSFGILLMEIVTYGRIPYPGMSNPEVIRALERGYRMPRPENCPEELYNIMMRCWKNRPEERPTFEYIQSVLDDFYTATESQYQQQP

For `O=C(c1ccc(-c2cnc3[nH]cc(Cl)c3c2NC2CCCC2)cc1)N1CCC(N2CCOCC2)CC1` [Compound 101, (4-(3-chloro-4-(cyclopentylamino)-1H-pyrrolo[2,3-b]pyridin-5-yl)phenyl)(4-morpholinopiperidin-1-yl)methanone], the remaining binding at 1 µM (HCK) was 96%, the remaining binding at 1 µM (MTOR) was 95% and the remaining binding at 1 µM (IKK-epsilon) was 99%. It also gave a remaining binding at 1 µM (MLCK) of 100%, a remaining binding at 1 µM (MAST1) of 70% and a remaining binding at 1 µM (ERK2) of 93%. For the same compound, the remaining binding at 1 µM [1] was 93%, the remaining binding at 1 µM (CDK9) was 96% and the remaining binding at 1 µM (WNK2) was 100%. It also gave a remaining binding at 1 µM (SIK) of 100%, a remaining binding at 1 µM (MARK3) of 89% and a remaining binding at 1 µM (WEE1) of 100%. For the same compound, the remaining binding at 1 µM (AURKC) was 71% and the remaining binding at 1 µM (PIK3CA(I800L)) was 80%.

`CNc1c(-c2cnn([C@H]3CCN(C(C)=O)C[C@@H]3F)c2)cnc2[nH]cc(Cl)c12` [Compound 77, 1-((3S,4S)-4-(4-(3-chloro-4-(methylamino)-1H-pyrrolo[2,3-b]pyridin-5-yl)-1H-pyrazol-1-yl)-3-fluoropiperidin-1-yl)ethan-1-one] was tested, and the remaining binding at 1 µM (HCK) was 100%, the remaining binding at 1 µM (MTOR) was 60% and the remaining binding at 1 µM (IKK-epsilon) was 64%. The remaining binding at 1 µM (MLCK) was 13%, the remaining binding at 1 µM (MAST1) was 50% and the remaining binding at 1 µM (ERK2) was 91%. For the same compound, the remaining binding at 1 µM [1] was 75%, the remaining binding at 1 µM (CDK9) was 83% and the remaining binding at 1 µM (WNK2) was 92%. For the same compound, the remaining binding at 1 µM (SIK) was 94%, the remaining binding at 1 µM (MARK3) was 82% and the remaining binding at 1 µM (WEE1) was 97%. It also gave a remaining binding at 1 µM (AURKC) of 26% and a remaining binding at 1 µM (PIK3CA(I800L)) of 566%.

`CNc1c(-c2ccc(C(=O)N3CCC(N4CCOCC4)CC3)cc2)cnc2[nH]cc(Cl)c12` [Compound 96, (4-(3-chloro-4-(methylamino)-1H-pyrrolo[2,3-b]pyridin-5-yl)phenyl)(4-morpholinopiperidin-1-yl)methanone] gave a remaining binding at 1 µM (HCK) of 100%, a remaining binding at 1 µM (MTOR) of 78% and a remaining binding at 1 µM (IKK-epsilon) of 68%. It also gave a remaining binding at 1 µM (MLCK) of 5%, a remaining binding at 1 µM (MAST1) of 24% and a remaining binding at 1 µM (ERK2) of 95%. It also gave a remaining binding at 1 µM [1] of 71%, a remaining binding at 1 µM (CDK9) of 87% and a remaining binding at 1 µM (WNK2) of 100%. For the same compound, the remaining binding at 1 µM (SIK) was 87%, the remaining binding at 1 µM (MARK3) was 84% and the remaining binding at 1 µM (WEE1) was 88%. The remaining binding at 1 µM (AURKC) was 49% and the remaining binding at 1 µM (PIK3CA(I800L)) was 64%.
